In PMC10508484, “Development and application of a PBPK modeling strategy to support antimalarial drug development” (CPT: Pharmacometrics & Systems Pharmacology, 2023):
“And” between values parts separate entries of the source, which are not always exact repeats. Identical values can stand only once. Like-named read-outs stand apart in the source and are kept apart here. Each block holds one compound with its values, some of them ahead of it.

Tests used:
[1] = PBPK input; ref Charman et al., 2020 1; cited from earlier work
CYP2C8 [2] = molecular target: T1, CYP2C8 (Homo sapiens, UniProt P10632); assay: Metabolism by CYP2C8 (CLint, fm)
T1 sequence (P10632 1-490): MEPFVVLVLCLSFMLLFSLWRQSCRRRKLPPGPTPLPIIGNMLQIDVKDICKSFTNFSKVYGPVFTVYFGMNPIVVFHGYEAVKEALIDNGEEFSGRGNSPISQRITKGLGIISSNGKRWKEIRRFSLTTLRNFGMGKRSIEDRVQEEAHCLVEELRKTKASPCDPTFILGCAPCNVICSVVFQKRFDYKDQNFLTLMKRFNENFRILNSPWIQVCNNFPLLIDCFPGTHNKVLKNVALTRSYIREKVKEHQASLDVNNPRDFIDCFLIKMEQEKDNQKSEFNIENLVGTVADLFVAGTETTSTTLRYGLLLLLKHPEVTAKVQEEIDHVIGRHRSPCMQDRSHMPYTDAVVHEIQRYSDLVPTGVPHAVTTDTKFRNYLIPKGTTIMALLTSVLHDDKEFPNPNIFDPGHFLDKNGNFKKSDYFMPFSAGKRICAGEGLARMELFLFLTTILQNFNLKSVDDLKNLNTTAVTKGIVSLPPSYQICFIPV
Excerpt: (§1) In nearly all cases the fraction of systemic elimination metabolised by a given enzyme (fm) determined in vitro was unavailable in the literature.

CYP2C8 [3] = molecular target: T1, CYP2C8; assay: biochemical
Caco-2 cells = conditions: calibrated against propranolol; plasma as medium for atovaquone and piperaquine; ref Charman et al., 2020 1; cited from earlier work
[4] = Fraction unbound in plasma (fu), main binding protein; conditions: PBPK input; unpublished (in-house) data
CYP2C19 = CYP2C19 (Homo sapiens, UniProt P33261); assay: Metabolism by CYP2C19 (CLint, fm); assay type: in vitro ADME; conditions: for fmCYP2C19: fraction metabolised used in the PBPK model (proguanil: total, all routes)
Excerpt: as §1

[5] = cited from earlier work
[6] = PBPK absorption inputs (fa, ka, tlag, Qgut, Fg); set-up: species or system human; conditions: for fa: derived from ascending dose studies, McCarthy et al., 2017
Excerpt: Initial models were built based on available physicochemical and in vitro data to give a ‘bottom-up’ prediction. Areas of uncertainty were highlighted, and the potential impact of uncertainty associated with such parameters was investigated using sensitivity analysis. Available clinical PK data were then used to evaluate and, if required, refine the initial ‘bottom-up’ model. Care was taken to split data into training and test sets wherever possible. The model verification strategy differed across compounds based on availability of different types of clinical data. […] Clinical studies used for drug model development and verification are reported in Table S2 (PK) and Table S3 (DDIs).

[7] = Blood to plasma ratio (B:P); conditions: PBPK input; unpublished (in-house) data
[8] = Fraction unbound in human liver microsomes (fumic); conditions: method of Austin et al., 2002
CYP2C8 [9] = molecular target: T1, CYP2C8
CYP3A4 [10] = molecular target: T2, CYP3A4 (Homo sapiens, UniProt P08684); assay: in vitro
CYP3A4 [11] = molecular target: T2, CYP3A4; conditions: cited from earlier work
CYP3A4 [12] = molecular target: T2, CYP3A4
Excerpt: as §1

in vitro = conditions: human, plasma
[13] = measured (0.4 mg/mL protein where stated); ref Charman et al., 2020 1; cited from earlier work
CYP2C9 = assay: Metabolism by CYP2C9 (CLint, fm); assay type: in vitro ADME, human
Excerpt: as §1

[14] = In vitro flags for victim and perpetrator properties conferring DDI liability; assay type: in vitro ADME, human; conditions: in vitro flag, mainly based on in vitro determinations
[15] = piperaquine 960 mg SD + clarithromycin 500 mg SD; ref Eurartesim - EMA Website, 12; cited from earlier work
CYP3A4 [16] = molecular target: T2, CYP3A4; assay: CYP3A4 inhibition (direct and time-dependent); conditions: Derived from IC50 shift data (single time point), unpublished data
[17] = Hepatic / HLM intrinsic clearance, enzyme not defined; conditions: human, liver microsomes
MATEs = molecular target: MATEs; set-up: method as in Miyake et al., 2021 71; conditions: average of MATE1 and MATE2-K; ref Miyake et al., 2021 71; cited from earlier work
OCT2 = conditions: read-out: OCT2 Ki; ref Kusuhara et al., 2011 70; cited from earlier work
OCT1 = system: OCT1; set-up: method as in Ito et al., 2010 68, Panfen et al., 2019 69; conditions: average; ref Ito et al., 2010 68, Panfen et al., 2019 69; cited from earlier work
[18] = ref Charman et al., 2020 1; cited from earlier work
[19] = PBPK input; ref Charman et al., 2020 1; cited from earlier work; remark: listed apart in the source
[20] = PBPK input; ref amodiaquine, DEAQ Winstanley et al., 1987 9; atovaquone Rolan et al., 1997 14; azithromycin Lalak et al., 1993 23; carboxyprimaquine Mihaly et al., 1985 26; chloroquine Walker et al., 1987 29; DHA EMA Website, 44; doxycycline Raghuram et al., 1982 48, Nguyen et al., 1989 49; mefloquine Schwartz et al., 1982 57; primaquine White, 1985 62; proguanil Jeppesen et al., 1997 34; pyrimeth; cited from earlier work
[21] = fraction metabolised used in the PBPK model
[22] = HLM CLint 31.6 µL/min/mg with 20% split equally between CYP2C9 and CYP2C19
[23] = Relative fa (in vivo fasted AUC / high fat fed AUC), EMA Website

Sequence of CYP2C19 (P33261 whole entry): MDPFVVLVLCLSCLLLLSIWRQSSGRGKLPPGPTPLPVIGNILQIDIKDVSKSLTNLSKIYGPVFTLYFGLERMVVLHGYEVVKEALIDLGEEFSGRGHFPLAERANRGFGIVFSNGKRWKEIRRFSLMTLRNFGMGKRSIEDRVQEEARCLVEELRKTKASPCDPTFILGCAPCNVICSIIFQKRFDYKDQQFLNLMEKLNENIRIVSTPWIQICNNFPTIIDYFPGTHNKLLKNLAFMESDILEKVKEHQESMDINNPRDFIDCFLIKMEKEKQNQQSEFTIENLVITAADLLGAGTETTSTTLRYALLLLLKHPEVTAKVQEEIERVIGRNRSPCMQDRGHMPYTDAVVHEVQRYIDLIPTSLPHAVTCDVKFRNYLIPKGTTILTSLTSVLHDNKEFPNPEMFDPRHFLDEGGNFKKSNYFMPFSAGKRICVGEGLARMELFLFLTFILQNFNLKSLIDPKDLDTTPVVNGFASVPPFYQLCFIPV
T2 sequence (P08684 whole entry): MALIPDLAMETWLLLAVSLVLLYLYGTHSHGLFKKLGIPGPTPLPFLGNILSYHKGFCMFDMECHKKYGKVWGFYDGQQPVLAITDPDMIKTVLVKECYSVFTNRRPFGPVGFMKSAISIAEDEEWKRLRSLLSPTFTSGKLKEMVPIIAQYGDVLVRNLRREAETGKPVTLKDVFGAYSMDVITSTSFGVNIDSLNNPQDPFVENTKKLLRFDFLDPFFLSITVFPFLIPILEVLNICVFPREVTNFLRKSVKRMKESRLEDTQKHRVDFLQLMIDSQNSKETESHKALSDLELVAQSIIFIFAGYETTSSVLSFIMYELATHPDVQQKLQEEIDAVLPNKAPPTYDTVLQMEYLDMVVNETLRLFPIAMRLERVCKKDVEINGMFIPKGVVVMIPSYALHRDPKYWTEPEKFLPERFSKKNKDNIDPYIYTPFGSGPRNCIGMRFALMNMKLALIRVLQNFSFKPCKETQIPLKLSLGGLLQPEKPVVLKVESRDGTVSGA

CLint CYP2C8 (CYP2C8 [2]; Unpublished MMV in house data): 2.384 µL/min/pmol
fmCYP2C8 (CYP2C8 [2]; [21]): 70% and ~ 70%
Ki (CYP2C8 [3]): 3.1 µM and 1.18 µM
fu [4]: 0.001
CLint CYP2C19 (CYP2C19; Unpublished MMV in house data): 1.751 µL/min/pmol
fmCYP2C19 (CYP2C19): 30% and ~ 30%
fa ([6]; doses 400 mg and above): 0.7
fa ([6]; doses 25 - 250 mg): 1
B:P [7]: 0.70
fumic ([8]; extrapolated from value measured at 0.4 mg/mL to 0.1 mg/mL): 0.61
fumic ([8]; for CYP2C8 Ki, extrapolated from 0.4mg/mL to 0.2 mg/mL): 0.44
SMILES: Cc1cc(Nc2ccc(S(F)(F)(F)(F)F)cc2)n2nc(C(C)(F)F)nc2n1 [DSM265]
Log P [1]: 4.03
Caco-2 (Papp A-B) (Caco-2 cells): 61 10-6 cm/s
AUC Obs ([5]; DSM265 400 mg SD, 0-inf, ref McCarthy et al., 2017 46): 1210 µg·h/mL
Cmax Obs ([5]; DSM265 400 mg SD, ref McCarthy et al., 2017 46): 11500 ng/mL
AUC Obs ([5]; DSM265 600 mg SD, 0-inf, ref McCarthy et al., 2017 46): 2140 µg·h/mL
Cmax Obs ([5]; DSM265 600 mg SD, ref McCarthy et al., 2017 46): 15500 ng/mL
AUC Obs ([5]; DSM265 800 mg SD, 0-inf, ref McCarthy et al., 2017 46): 2220 µg·h/mL
Cmax Obs ([5]; DSM265 800 mg SD, ref McCarthy et al., 2017 46): 19100 ng/mL
AUC Obs ([5]; DSM265 1200 mg SD, 0-inf, ref McCarthy et al., 2017 46): 4720 µg·h/mL
Cmax Obs ([5]; DSM265 1200 mg SD, ref McCarthy et al., 2017 46): 34800 ng/mL

Ki (CYP2C8 [9]): 4.46 µM
SMILES: CC(F)(F)c1nc2nc(CO)cc(Nc3ccc(S(F)(F)(F)(F)F)cc3)n2n1 [DSM450]
AUC Obs ([5]; in vivo, 400 mg): 271 µg·h/mL
Cmax Obs ([5]; in vivo, 400 mg): 1070 ng/mL
AUC Obs ([5]; in vivo, 600 mg): 477 µg·h/mL
Cmax Obs ([5]; in vivo, 600 mg): 1380 ng/mL
AUC Obs ([5]; in vivo, 800 mg): 454 µg·h/mL
Cmax Obs ([5]; in vivo, 800 mg): 1920 ng/mL
AUC Obs ([5]; in vivo, 1200 mg): 1170 µg·h/mL
Cmax Obs ([5]; in vivo, 1200 mg): 3070 ng/mL

kinact (CYP3A4 [10]): 0.000347 s⁻¹
fmCYP3A4 (CYP3A4 [12]): 80%
CLint CYP3A4 (CYP3A4 [12]; microsomes): 25.3 µL/min/pmol
fraction unbound (in vitro): 0.006
CLint CYP2C19 (CYP2C19; [22]): 3.16 µL/min/pmol
fmCYP2C19 (CYP2C19): 10%
CLint CYP2C9 (CYP2C9; [22]): 3.16 µL/min/pmol
fmCYP2C9 (CYP2C9; [21]): 10%
Risk as a perpetrator [14]: CYP3A4 time‐dependent inhibitor
Risk as a victim [14]: Substrate of CYP3A4, CYP2C9 and CYP2C19
fa - 960 mg fasted [6, 23]: 0.4
fa - 1280 mg fasted [6, 23]: 0.33
fa - 960 mg fed ([6]; Relative fa, EMA Website): 1
fa - 1280 mg fed ([6]; Relative fa, EMA Website): 1
B:P [7]: 0.9
CYP3A4 KI (CYP3A4 [16]): 0.12 µM
microsomal CLint [17]: 31.6 µL/min/mg
SMILES: Clc1ccc2c(N3CCN(CCCN4CCN(c5ccnc6cc(Cl)ccc56)CC4)CC3)ccnc2c1 [Piperaquine, piperaquine]
Log P [1]: 5.27
Ki (CYP3A4 [11]): 3 µM
Caco-2 (Papp A-B) (Caco-2 cells): 233 10-6 cm/s
fumic [13]: 0.013
AUC Obs ([5]; 960 mg QD (fasted, Day 3), 0-72 h, ref Eurartesim S06, Females <75 kg): 5.38 µg·h/mL
AUC Obs ([5]; 960 mg QD (fasted, Day 3), 0-72 h, ref Eurartesim S06, Males <75 kg): 3.93 µg·h/mL
Cmax Obs ([5]; 960 mg QD (fasted, Day 3), ref Eurartesim S06, Females <75 kg): 505 ng/mL
Cmax Obs ([5]; 960 mg QD (fasted, Day 3), ref Eurartesim S06, Males <75 kg): 280 ng/mL
AUC Obs ([5]; 960 mg QD (fed, Day 3), 0-72 h, ref Eurartesim S06, Females <75 kg): 12.5 µg·h/mL
AUC Obs ([5]; 960 mg QD (fed, Day 3), 0-72 h, ref Eurartesim S06, Males <75 kg): 10.7 µg·h/mL
Cmax Obs ([5]; 960 mg QD (fed, Day 3), ref Eurartesim S06, Females <75 kg): 1270 ng/mL
Cmax Obs ([5]; 960 mg QD (fed, Day 3), ref Eurartesim S06, Males <75 kg): 1120 ng/mL
AUC Obs ([5]; 1280 mg QD (fasted), 0-72 h, ref Eurartesim S06, Males ≥75 kg): 3.93 µg·h/mL
Cmax Obs ([5]; 1280 mg QD (fasted), ref Eurartesim S06, Males ≥75 kg): 280 ng/mL
AUC Obs ([5]; 1280 mg QD (fed), 0-72 h, ref Eurartesim S06, Males ≥75 kg EMA Website, 33): 10.7 µg·h/mL
Cmax Obs ([5]; 1280 mg QD (fed), ref Eurartesim S06, Males ≥75 kg EMA Website, 33): 1120 ng/mL
AUC Obs ([5]; 1280 mg SD tetraphosphate salt, 0-72 h, ref EMA Website, 33): 3.01 µg·h/mL
Cmax Obs ([5]; 1280 mg SD tetraphosphate salt, ref EMA Website, 33): 190 ng/mL
AUC ratio Obs [15]: ≤ 2 fold
Cmax ratio Obs [15]: ≤ 2 fold

SMILES: CCc1nc(N)nc(N)c1-c1ccc(Cl)cc1 [Pyrimethamine, pyrimethamine]
Ki (MATEs): 0.124 µM
Ki (OCT2): 10 µM
Ki (OCT1): 2.3 µM
Caco-2 (Papp A-B) (Caco-2 cells): 59.8 10-6 cm/s
pKa(s) [18]: 6.86
Cmax Obs ([5]; in vivo, 100 mg): 771 ng/mL
fu [19]: 0.095
Risk as a perpetrator [14]: OCT2 and MATE inhibitor
CL renal [20]: 0.0989 L/h
microsomal CLint [17]: 1.8 µL/min/mg
